Tested on: fokalen Ischämie in Mäusen
Test: Mouse model of focal ischemia (30 min MCAo/reperfusion), overall outcome
Format: in vivo, Mäuse
Conditions: Mirtazapin 20 mg/kg i.p. starting 7 days after MCAo/reperfusion
Source text: Die erfindungsgemäßen neuroprotektiven und neuroregenerativen/neuroplastischen Effekte von SSRI auf neuronale Krankheiten wurde anhand eines anerkannten Tiermodells zur fokalen Ischämie in Mäusen untersucht. […] Tag nach der Induktion der Ischämie einsetzte.
Anschließend wurden die SRRI Effekte auf das Volumen der ischämischen Läsionen ausgewertet. Ferner wurden die Tiere Standard-Verhaltenstests unterzogen. Zudem wurden die Konzentrationen ausgewählter Neurotransmitter erfaßt.
Die Tierversuche wurden nach den Maßgaben des Tierschutzgesetzes in Übereinstimmung mit institutionellen und internationalen Richtlinien durchgeführt. Männliche 12936/SvEv-Mäuse (18-20 g, Bundesamt für Gesundheitsschutz Berlin) wurden in Gruppen von 4-5 Mäusen pro Käfig in Standardlaborkäfigen bei einer Umgebungstemperatur von 20-21°C bei einem 12 h-Licht-Dunkel-Rhythmus (8.00 Uhr/20.00 Uhr) mit freiem Zugang zu Futter und Wasser gehalten. Die Narkose der Mäuse erfolgte mit 1% Isofluran in 69% N20 und 30% 02 mit einem Narkoseverdampfer. Die Tiere wurden einer 30 min Fliamentokklusion der Arteria cerebri media (MCAo) unterworfen, wobei die Körpertemperatur und der regionale cerebrale Blutfluss wie beschrieben gemessen wurden (Endres et al., 1998). […]

`CN1CCN2c3ncccc3Cc3ccccc3C2C1` (racemic) [Mirtazapin, (RS)-(±)-2-Methyl-1,2,3,4,10,14b-hexahydropyrazino [2,1-a]pyrido[2,3-c][2]benzazepin] was tested, and the “Ergebnisse (overall outcome in the MCAo model)” value was “entsprachen denjenigen, die mit Citalopram erreicht wurden”.

Reference: EP2008653A1, “Serotonergic compounds for treating neuronal illnesses” (Charité-Universitätsmedizin Berlin, priority 2007, dated 2008)
